Data taken from patent US20050070510A1, “Substituted tetracycline compounds as synergistic antifungal agents” (Paratek Pharmaceuticals, Inc., priority 2001, published 2005).

The molecules below were run on COS-1 cells (assay: In vitro mammalian cytotoxicity assay (Resazurin)).

SMILES | In Vitro Cytotoxicity
CC#Cc1ccc(O)c2c1CC1CC3[C@H](N(C)C)C(O)=C(C(N)=O)C(=O)[C@@]3(O)C(O)=C1C2=O (some centres unmarked) [Compound HC, 7-(Propynyl)-Sancycline] | ** (toxicities less than 25 μg/mL are represented by **)
CN(C)c1cc(NC(=O)OC(C)(C)C)c(O)c2c1C[C@@]1(N)C[C@@]3(N)[C@H](N(C)C)C(O)=C(C(N)=O)C(=O)[C@@]3(C#N)C(O)=C1C2=O [DN] | ** (toxicities less than 25 μg/mL are represented by **)
COc1ccc(-c2ccc3c(c2O)C(=O)C2=C(O)[C@]4(C#N)C(=O)C(C(N)=O)=C(O)[C@@H](N(C)C)[C@]4(N)[C@@H](O)[C@]2(N)C3N)cc1 (some centres unmarked) [AZ] | ** (toxicities less than 25 μg/mL are represented by **)
CCCC/C(Cl)=C/c1ccc(O)c2c1C[C@@]1(N)C[C@@]3(N)[C@H](N(C)C)C(O)=C(C(N)=O)C(=O)[C@@]3(C#N)C(O)=C1C2=O [IH] | ** (toxicities less than 25 μg/mL are represented by **)
COc1ccc(CNCc2cccc(F)c2)cc1-c1ccc(O)c2c1[C@H](N)[C@]1(N)C(=C(O)[C@]3(C#N)C(=O)C(C(N)=O)=C(O)[C@@H](N(C)C)[C@]3(N)[C@H]1O)C2=O [QL] | * (toxicities greater than >25 μg/ml are represented by *)
CN(C)c1cc(CNC(=O)Nc2ccc(OC(F)(F)F)cc2)c(O)c2c1C[C@@]1(N)C[C@@]3(N)[C@H](N(C)C)C(O)=C(C(N)=O)C(=O)[C@@]3(C#N)C(O)=C1C2=O [NE] | * (toxicities greater than >25 μg/ml are represented by *)
CN(C)[C@@H]1C(O)=C(C(N)=O)C(=O)[C@@]2(C#N)C(O)=C3C(=O)c4c(O)cccc4[C@H](N)[C@@]3(N)[C@H](OC(=O)C34CC5CC(CC(C5)C3)C4)[C@@]12N [CJ] | ** (toxicities less than 25 μg/mL are represented by **)
CN(C)[C@@H]1C(O)=C(C(N)=O)C(=O)[C@@]2(C#N)C(O)=C3C(=O)c4c(ccc(Nc5nc(-c6cccc([N+](=O)O)c6)cs5)c4O)C[C@@]3(N)C[C@@]12N [ED] | ** (toxicities less than 25 μg/mL are represented by **)
CN(C)[C@@H]1C(O)=C(C(N)=O)C(=O)[C@@]2(C#N)C(O)=C3C(=O)c4c(O)ccc(C#Cc5ccccc5)c4C[C@@]3(N)C[C@@]12N [FX] | ** (toxicities less than 25 μg/mL are represented by **)
CN(C)[C@@H]1C(O)=C(C(N)=O)C(=O)[C@@]2(C#N)C(O)=C3C(=O)c4c(O)ccc(-c5ccc(NC(=O)NCCCCl)cc5)c4C[C@@]3(N)C[C@@]12N [US] | ** (toxicities less than 25 μg/mL are represented by **)
CN(C)c1cc(-c2ccc(F)c(F)c2)c(O)c2c1C[C@@]1(N)C[C@@]3(N)[C@H](N(C)C)C(O)=C(C(N)=O)C(=O)[C@@]3(C#N)C(O)=C1C2=O [EY] | ** (toxicities less than 25 μg/mL are represented by **)
CN(C)[C@@H]1C(O)=C(C(N)=O)C(=O)[C@@]2(C#N)C(O)=C3C(=O)c4c(O)ccc(-c5ccc(CN6CCOCC6)cc5)c4C[C@@]3(N)C[C@@]12N [HT] | * (toxicities greater than >25 μg/ml are represented by *)
CN(C)c1ccc(-c2cc(C#CC3=CCCCC3)c(O)c3c2C[C@@]2(N)C[C@@]4(N)[C@H](N(C)C)C(O)=C(C(N)=O)C(=O)[C@@]4(C#N)C(O)=C2C3=O)cc1 [QO] | ** (toxicities less than 25 μg/mL are represented by **)
COC(=O)C(CC(C)C)NCc1ccc(OC)c(-c2ccc(O)c3c2C[C@@]2(N)C[C@@]4(N)[C@H](N(C)C)C(O)=C(C(N)=O)C(=O)[C@@]4(C#N)C(O)=C2C3=O)c1 (some centres unmarked) [OA] | ** (toxicities less than 25 μg/mL are represented by **)
CN(C)[C@@H]1C(O)=C(C(N)=O)C(=O)[C@@]2(C#N)C(O)=C3C(=O)c4c(O)ccc(-c5ccc(CN6CCCC6)cc5)c4C[C@@]3(N)C[C@@]12N [HM] | * (toxicities greater than >25 μg/ml are represented by *)
CN(C)[C@@H]1C(O)=C(C(N)=O)C(=O)[C@@]2(C#N)C(O)=C3C(=O)c4c(O)cccc4[C@H](N)[C@@]3(N)[C@H](OC(=O)CN)[C@@]12N [BV] | ** (toxicities less than 25 μg/mL are represented by **)
CCC#Cc1ccc(O)c2c1C[C@@]1(N)C[C@@]3(N)[C@H](N(C)C)C(O)=C(C(N)=O)C(=O)[C@@]3(C#N)C(O)=C1C2=O [JW] | ** (toxicities less than 25 μg/mL are represented by **)
CN(C)[C@@H]1C(O)=C(C(N)=O)C(=O)[C@@]2(C#N)C(O)=C3C(=O)c4c(O)ccc(-c5ccc(CNCc6cccc(F)c6)cc5)c4C[C@@]3(N)C[C@@]12N [OG] | ** (toxicities less than 25 μg/mL are represented by **)
CN(C)c1cc(NC(=O)Nc2ccc([N+](=O)O)cc2)c(O)c2c1C[C@@]1(N)C[C@@]3(N)[C@H](N(C)C)C(O)=C(C(N)=O)C(=O)[C@@]3(C#N)C(O)=C1C2=O [IC] | * (toxicities greater than >25 μg/ml are represented by *)
CN(C)[C@@H]1C(O)=C(C(N)=O)C(=O)[C@@]2(C#N)C(O)=C3C(=O)c4c(O)ccc(-c5ccccc5Cl)c4C[C@@]3(N)C[C@@]12N [GM] | ** (toxicities less than 25 μg/mL are represented by **)
CN(C)[C@@H]1C(O)=C(C(N)=O)C(=O)[C@@]2(C#N)C(O)=C3C(=O)c4c(O)ccc(-c5ccoc5)c4C[C@@]3(N)C[C@@]12N [EP] | ** (toxicities less than 25 μg/mL are represented by **)

SMILES | In Vitro Cytotoxicity
Cc1ccc(OC(=O)NCc2cc(N(C)C)c3c(c2O)C(=O)C2=C(O)[C@]4(C#N)C(=O)C(C(N)=O)=C(O)[C@@H](N(C)C)[C@]4(N)C[C@]2(N)C3)cc1 [MU] | ** (toxicities less than 25 μg/mL are represented by **)
COC(=O)C#Cc1cc(N(C)C)c2c(c1O)C(=O)C1=C(O)[C@]3(C#N)C(=O)C(C(N)=O)=C(O)[C@@H](N(C)C)[C@]3(N)C[C@]1(N)C2 [JI] | * (toxicities greater than >25 μg/ml are represented by *)
Cc1ncsc1/C=C/c1ccc(O)c2c1C[C@@]1(N)C[C@@]3(N)[C@H](N(C)C)C(O)=C(C(N)=O)C(=O)[C@@]3(C#N)C(O)=C1C2=O [HE] | ** (toxicities less than 25 μg/mL are represented by **)
Cc1ccnc(-c2ccc(O)c3c2C[C@@]2(N)C[C@@]4(N)[C@H](N(C)C)C(O)=C(C(N)=O)C(=O)[C@@]4(C#N)C(O)=C2C3=O)c1 [VE] | ** (toxicities less than 25 μg/mL are represented by **)
CCCCCC(=O)c1ccc(O)c2c1C[C@@]1(N)C[C@@]3(N)[C@H](N(C)C)C(O)=C(C(N)=O)C(=O)[C@@]3(C#N)C(O)=C1C2=O [TT] | ** (toxicities less than 25 μg/mL are represented by **)
CCCCCN(CCCCC)Cc1cc(N(C)C)c2c(c1O)C(=O)C1=C(O)[C@]3(C#N)C(=O)C(C(N)=O)=C(O)[C@@H](N(C)C)[C@]3(N)C[C@]1(N)C2 [MP] | ** (toxicities less than 25 μg/mL are represented by **)
CN(C)c1cc(NCc2cc(F)cc(F)c2)c(O)c2c1C[C@@]1(N)C[C@@]3(N)[C@H](N(C)C)C(O)=C(C(N)=O)C(=O)[C@@]3(C#N)C(O)=C1C2=O [TS] | ** (toxicities less than 25 μg/mL are represented by **)
COc1ccc(-c2ccc(O)c3c2C[C@@]2(N)C[C@@]4(N)[C@H](N(C)C)C(O)=C(C(N)=O)C(=O)[C@@]4(C#N)C(O)=C2C3=O)cc1 [QF] | ** (toxicities less than 25 μg/mL are represented by **)
CN(C)c1cc(CNC(=O)NCC(C)(C)C)c(O)c2c1C[C@@]1(N)C[C@@]3(N)[C@H](N(C)C)C(O)=C(C(N)=O)C(=O)[C@@]3(C#N)C(O)=C1C2=O [MC] | * (toxicities greater than >25 μg/ml are represented by *)
CN(C)[C@@H]1C(O)=C(C(N)=O)C(=O)[C@@]2(C#N)C(O)=C3C(=O)c4c(O)cccc4C(N)[C@@]3(N)[C@H](O)[C@@]12N (some centres unmarked) [CZ] | ** (toxicities less than 25 μg/mL are represented by **)
CN(C)[C@@H]1C(O)=C(C(N)=O)C(=O)[C@@]2(C#N)C(O)=C3C(=O)c4c(O)c(CNC(=O)CCl)cc(-c5ccccc5)c4C[C@@]3(N)C[C@@]12N [KD] | ** (toxicities less than 25 μg/mL are represented by **)
Cc1noc(C)c1S(=O)(=O)Nc1ccc2c(c1O)C(=O)C1=C(O)[C@]3(C#N)C(=O)C(C(N)=O)=C(O)[C@@H](N(C)C)[C@]3(N)C[C@]1(N)C2 [RI] | ** (toxicities less than 25 μg/mL are represented by **)
CN(C)c1cc(CCCNS(C)(=O)=O)c(O)c2c1C[C@@]1(N)C[C@@]3(N)[C@H](N(C)C)C(O)=C(C(N)=O)C(=O)[C@@]3(C#N)C(O)=C1C2=O [JX] | * (toxicities greater than >25 μg/ml are represented by *)
COC(=O)C1C(=O)[C@@]2(O)C(O)=C3C(=O)c4c(O)c(N(C)Cc5cc[nH]n5)cc(N(C)C)c4C[C@@]3(N)C[C@@]2(N)[C@H](N(C)C)C1OC (some centres unmarked) [VG] | ** (toxicities less than 25 μg/mL are represented by **)
CN(C)[C@@H]1C(O)=C(C(N)=O)C(=O)[C@@]2(C#N)C(O)=C3C(=O)c4c(O)ccc(C#CCNS(C)(=O)=O)c4C[C@@]3(N)C[C@@]12N [IQ] | * (toxicities greater than >25 μg/ml are represented by *)
COC(=O)/C=C/c1cccc(-c2ccc(O)c3c2C[C@@]2(N)C[C@@]4(N)[C@H](N(C)C)C(O)=C(C(N)=O)C(=O)[C@@]4(C#N)C(O)=C2C3=O)c1 [UF] | ** (toxicities less than 25 μg/mL are represented by **)
CN(C)[C@@H]1C(O)=C(C(N)=O)C(=O)[C@@]2(C#N)C(O)=C3C(=O)c4c(O)c(C(=O)NCC5CCCO5)cc(-c5ccc(F)cc5)c4C[C@@]3(N)C[C@@]12N (some centres unmarked) [KZ] | * (toxicities greater than >25 μg/ml are represented by *)
CN(C)[C@@H]1C(O)=C(C(N)=O)C(=O)[C@@]2(C#N)C(O)=C3C(=O)c4c(ccc(NC(=O)OCC5c6ccccc6-c6ccccc65)c4O)[C@H](N)[C@@]3(N)[C@H](O)[C@@]12N [BK] | ** (toxicities less than 25 μg/mL are represented by **)
CCc1cc(C(C)(C)C)c(O)c2c1C[C@@]1(N)C[C@@]3(N)[C@H](N(C)C)C(O)=C(C(=O)NC(C)(C)C)C(=O)[C@@]3(C#N)C(O)=C1C2=O [LE] | ** (toxicities less than 25 μg/mL are represented by **)
CN(C)CC(=O)O[C@H]1[C@@]2(N)C(=C(O)[C@]3(C#N)C(=O)C(C(N)=O)=C(O)[C@@H](N(C)C)[C@]13N)C(=O)c1c(O)cccc1[C@@H]2N [BZ] | ** (toxicities less than 25 μg/mL are represented by **)
